# Source: patent US11084824B2, “Pyrazolopyrimidine derivatives, preparation method thereof, and pharmaceutical composition for use in preventing or treating cancer, autoimmune disease and brain disease containing the same as an active ingredient” (Korea Research Institute of Chemical Technology, priority 2017, dated 2021)
# Counter-ions that a name gives are not always drawn.
# What was measured:
# [1] = molecular target: Bruton's tyrosine kinase (BTK) (Homo sapiens (Human), UniProt Q06187); assay: BTK enzyme inhibition assay (Cisbio HTRF kit); assay type: biochemical; conditions: 30 minutes reaction, fluorescence 665 nm/620 nm
# Chain of Bruton's tyrosine kinase (BTK) (Q06187 whole entry): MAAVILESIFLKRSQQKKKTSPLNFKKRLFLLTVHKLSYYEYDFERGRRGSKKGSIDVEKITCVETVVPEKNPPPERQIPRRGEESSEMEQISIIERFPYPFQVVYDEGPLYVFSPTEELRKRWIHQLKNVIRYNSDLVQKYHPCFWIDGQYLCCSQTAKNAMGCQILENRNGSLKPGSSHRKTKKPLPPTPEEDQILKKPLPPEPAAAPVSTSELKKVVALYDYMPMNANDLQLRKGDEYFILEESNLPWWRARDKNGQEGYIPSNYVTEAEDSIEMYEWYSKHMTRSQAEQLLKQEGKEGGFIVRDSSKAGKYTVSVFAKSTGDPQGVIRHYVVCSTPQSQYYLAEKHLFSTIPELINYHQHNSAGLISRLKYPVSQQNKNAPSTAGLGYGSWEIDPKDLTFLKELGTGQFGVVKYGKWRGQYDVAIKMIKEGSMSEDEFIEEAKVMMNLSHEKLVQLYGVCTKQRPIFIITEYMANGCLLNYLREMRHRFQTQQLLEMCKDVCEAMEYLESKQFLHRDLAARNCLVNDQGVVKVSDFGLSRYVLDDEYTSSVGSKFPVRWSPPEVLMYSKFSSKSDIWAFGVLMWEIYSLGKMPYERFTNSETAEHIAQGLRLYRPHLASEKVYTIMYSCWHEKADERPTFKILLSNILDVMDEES
# Protocol: BTK enzyme evaluation with each compound of examples of the invention was performed by using BTK enzyme inhibition diagnosis kit (Cisbio, Codolet, France). […] Then, EDTA (ethylenediaminetetraacetic acid) was added thereto in order to terminate the reaction. At this time, the EDTA solution contained curopium-containing antibody (antiphosphoresidue antibody) and straptavidin-XL665 (SA-XL665, Cisbio). After incubation for 1 hour, fluorescence was measured. The emission values of 665 nm and 620 nm excited at 337 nm were measured with Envision reader. IC50 values were determined using GraphPad prism (version 5). Herein, the curve indicates a nonlinear regression model, which was determined by logarithmic functions and reaction values.
# TMD8 cells = assay: TMD8 cell growth inhibition (WST-1, 72 hours); assay type: cell-based; conditions: Homo sapiens, TMD8 ABC type DLBCL cell line, WST-1, absorbance 450 nm
# Protocol: TDM-8 cells, the ABC (activated B-cell) type DLBCL (diffuse large B cell lymphoma) cell line sensitive to BTK signaling, were seeded in a 96-well plate at 30% confluency. Then, the compounds of the invention were treated thereto at different concentrations. 72 hours later, WST-1 reagent was added thereto. One hour later, absorbance was measured at 450 nm by using a spectramax spectrophotometer.
IC50 [1] [nM],SMILES,IC50 (TMD8 cells) [nM]
0.3,"Cc1cccc(C)c1Nc1nn(C)c2nc(Nc3ccc4c(c3)CN(CCO)CC4)ncc12 [Example 24, 2-(7-((3-((2,6-dimethylphenyl)amino)-1-methyl-1H-pyrazolo[3,4-d]pyrimidine-6-yl)amino)-3,4-dihydroisoquinoline-2(1H)-yl)ethane-1-ol]",40.1
2.13,"Cc1cccc(C)c1Nc1nn(C)c2nc(Nc3ccc4c(c3)CN(C)CC4(C)C)ncc12 [Example 63, N3-(2,6-dimethylphenyl)-1-methyl-N 6-(2,4,4-trimethyl-1,2,3,4-tetrahydroisoquinoline-7-yl)-1H-pyrazolo[3,4-d]pyrimidine-3,6-diamine]",20.9
0.3,"Cc1cccc(C)c1Nc1nn(C2CCCC2)c2nc(Nc3ccc4c(c3)CNCC4)ncc12 [Example 25, 1-cyclopentyl-N^3-(2,6-dimethylphenyl)-N^6-(1,2,3,4-tetrahydroisoquinoline-7-yl)-1H-pyrazolo[3,4-d]pyrimidine-3,6-diamine]",90.3
15,"Cc1cc(C(=O)Nc2ccccn2)cc(C)c1Nc1nn(C)c2nc(Nc3ccc4c(c3)CNCC4)ncc12 [Example 34, 3,5-dimethyl-4-(1-methyl-6-(1,2,3,4-tetrahydroisoquinoline-7-ylamino)-1H-pyrazolo[3,4-d]pyrimidine-3-ylamino)-N-(pyridine-2-yl)benzamide]",178
0.745,"Cc1cccc(C)c1Nc1nn(C)c2nc(Nc3ccc4c(c3)CNC4)ncc12 [Example 56, N^3-(2,6-dimethylphenyl)-N^6-(isoindolin-5-yl)-1-methyl-1H-pyrazolo[3,4-d]pyrimidine-3,6-diamine hydrochloride]",58.9
1.14,"Cc1cccc(C)c1Nc1nn(C2CCC(O)CC2)c2nc(Nc3ccc4c(c3)CNCC4)ncc12 (stereo not drawn) [Example 54, 4-(3-((2,6-dimethylphenyl)amino)-6-((1,2,3,4-tetrahydroisoquinoline-7-yl)amino)-1H-pyrazolo[3,4-d]pyrimidine-1-yl)cyclohexane-1-ol]",60.9
10,"Cc1cccc(C)c1Nc1nn(C)c2nc(Nc3ccc(C4CCNCC4)cc3)ncc12 [Comparative Example 1, N^3-(2,6-dimethylphenyl)-1-methyl-N^6-(4-(piperidine-4-yl)phenyl)-1H-pyrazolo[3,4-d]pyrimidine-3,6-diamine, reference compound]",–
2.8,"Cc1ccc(Nc2nn(C)c3nc(Nc4ccc5c(c4)CNCC5)ncc23)c(C)c1 [Example 39, N^3-(2,4-dimethylphenyl)-1-methyl-N^6 (1,2,3,4-tetrahydroisoquinoline-7-yl)-1H-pyrazolo[3,4-d]pyrimidine-3,6-diamine]",292
2,"Cc1cccc(C)c1Nc1nn(C2CCCCC2)c2nc(Nc3ccc4c(c3)CNCC4)ncc12 [Example 26, 1-cyclohexyl-N^3-(2,6-dimethylphenyl)-N^6 (1,2,3,4-tetrahydroisoquinoline-7-yl)-1H-pyrazolo[3,4-d]pyrimidine-3,6-diamine]",64.9
0.8,"Cc1cccc(C)c1Nc1nn(C)c2nc(Nc3ccc4c(c3)CN(C(=O)CN(C)C)CC4)ncc12 [Example 31, 2-(dimethylamino)-1-(7-(3-(2,6-dimethylphenylamino)-1-methyl-1H-pyrazolo[3,4-d]pyrimidine-6-ylamino)-3,4-dihydroisoquinolin-2(1H)-yl)ethanone]",64.2
44,"CCc1cccc(CC)c1Nc1nn(C)c2nc(Nc3ccc4c(c3)CNCC4)ncc12 [Example 36, N^3-(2,6-diethylphenyl)-1-methyl-N^6-(1,2,3,4-tetrahydroisoquinoline-7-yl)-1H-pyrazolo[3,4-d]pyrimidine-3,6-diamine]",968
1.61,"Cc1cccc(C)c1Nc1nn(C)c2nc(Nc3ccc4c(c3)C(C(C)C)NCC4)ncc12 (stereo not drawn) [Example 49, N^3-(2,6-dimethylphenyl)-N^6-(1-isopropyl-1,2,3,4-tetrahydroisoquinoline-7-yl)-1-methyl-1H-pyrazolo[3,4-d]pyrimidine-3,6-diamine]",19.6
0.5,"Cc1cccc(C)c1Nc1nn(C)c2nc(Nc3ccc4c(c3)COCC4)ncc12 [Example 18, N^3(2,6-dimethylphenyl)-N^6 (isochroman-7-yl)-1-methyl-1H-pyrazolo[3,4-d]pyrimidine-3,6-diamine]",134
0.2,"Cc1cccc(C)c1Nc1nn(C)c2nc(Nc3ccc4c(c3)CN(C(C)C)CC4)ncc12 [Example 21, N-(2,6-dimethylphenyl)-N^6 (2-isopropyl-1,2,3,4-tetrahydroisoquinoline-7-yl)-1-methyl-1H-pyrazolo[3,4-d]pyrimidine-3,6-diamine]",139
3,"COc1cc(C)c(Nc2nn(C)c3nc(Nc4ccc5c(c4)CNCC5)ncc23)c(C)c1 [Example 35, N^3-(4-methoxy-2,6-dimethylphenyl)-1-methyl-N^6-(1,2,3,4-tetrahydroisoquinoline-7-yl)-1H-pyrazolo[3,4-d]pyrimidine-3,6-diamine]",99.3
5.22,"Cc1ccc(NC(=O)c2cccc(C(F)(F)F)c2)cc1Nc1nn(C)c2nc(Nc3ccc4c(c3)C(C)N(C)CC4)ncc12 (stereo not drawn) [Example 64, N-(3-((6-((1,2-dimethyl-1,2,3,4-tetrahydroisoquinolin-7-yl)amino)-1-methyl-1H-pyrazolo[3,4-d]pyrimidine-3-yl)amino)-4-methylphenyl)-3-(trifluoromethyl)benzamide]",10.1
0.3,"Cc1cccc(C)c1Nc1nn(C)c2nc(Nc3ccc4c(c3)CN(C(=O)C3CC3)CC4)ncc12 [Example 23, cyclopropyl(7-(3-(2,6-dimethylphenylamino)-1-methyl-1H-pyrazolo[3,4-d]pyrimidine-6-ylamino)-3,4-dihydroisoquinoline-2(1H)-yl)methanone]",87.9
1.2,"Cc1cccc(C)c1Nc1nn(C)c2nc(Nc3ccc4c(c3)CN(C)CC4)ncc12 [Example 17, N^3-(2,6-dimethylphenyl)-1-methyl-N^6-(2-methyl-1,2,3,4-tetrahydroisoquinoline-7-yl)-1H-pyrazolo[3,4-d]pyrimidine-3,6-diamine]",36
1.03,"CC(=O)N1CCc2ccc(Nc3ncc4c(Nc5c(C)cccc5C)nn(C)c4n3)cc2C1C (stereo not drawn) [Example 61, 1-(7-((3-((2,6-dimethylphenyl)amino)-1-methyl-1H-pyrazolo[3,4-d]pyrimidine-6-yl)amino)-1-methyl-3,4-dihydroisoquinoline-2(1H)-yl)ethane-1-one]",96.4
–,"Cc1cccc(C)c1Nc1n[nH]c2nc(Nc3ccc4c(c3)CNCC4)ncc12 [Example 19, N3-(2,6-dimethylphenyl)-N6-(1,2,3,4-tetrahydroisoquinoline-7-yl)-1H-pyrazolo[3,4-d]pyrimidine-3,6-diamine]",49.4
–,"Cc1cccc(C)c1Nc1nn(C)c2nc(Nc3ccc4c(c3)CN(C)C(C)(C)C4)ncc12 [Example 66, N3-(2,6-dimethylphenyl)-1-methyl-N 6-(2,3,3-trimethyl-1,2,3,4-tetrahydroisoquinoline-7-yl)-1H-pyrazolo[3,4-d]pyrimidine-3,6-diamine]",28.5
20,"CC(=O)N1CCC(c2ccc(Nc3ncc4c(Nc5c(C)cccc5C)nn(C)c4n3)cc2)CC1 [Comparative Example 2, 1-(4-(4-(3-(2,6-dimethylphenylamino)-1-methyl-1H-pyrazolo[3,4-d]pyrimidine-6-ylamino)phenyl)piperidine-1-yl)ethaneone, reference compound]",–
–,"Cc1cccc(C)c1Nc1nn(C)c2nc(Nc3ccc4c(c3)CN(C)C4)ncc12 [Example 74, N3-(2,6-dimethylphenyl)-1-methyl-N 6-(2-methylisoindolin-5-yl)-1H-pyrazolo[3,4-d]pyrimidine-3,6-diamine]",358
–,"CC(=O)N1Cc2ccc(Nc3ncc4c(Nc5c(C)cccc5C)nn(C)c4n3)cc2C1 [Example 72, 1-(5-((3-((2,6-dimethylphenyl)amino)-1-methyl-1H-pyrazolo[3,4-d]pyrimidine-6-yl)amino)isoindolin-2-yl)ethane-1-one]",266
–,"Cc1cccc(C)c1Nc1nn(C)c2nc(Nc3ccc4c(c3)CCCC4)ncc12 [Example 75, N3-(2,6-dimethylphenyl)-1-methyl-N 6-(5,6,7,8-tetrahydronaphthalen-2-yl)-1H-pyrazolo[3,4-d]pyrimidine-3,6-diamine]",667
–,"Cc1ccc(C(=O)Nc2cccc(C(F)(F)F)c2)cc1Nc1nn(C)c2nc(Nc3ccc4c(c3)CNCC4)ncc12 [Example 52, 4-methyl-3-(1-methyl-6-(1,2,3,4-tetrahydroisoquinoline-7-ylamino)-1H-pyrazolo[3,4-d]pyrimidine-3-ylamino)-N-(3-(trifluoromethyl)phenyl)benzamide]",83.2
–,"Cc1ccc(C)c(Nc2nn(C)c3nc(Nc4ccc5c(c4)CNCC5)ncc23)c1 [Example 45, N^3-(2,5-dimethylphenyl)-1-methyl-N^6 (1,2,3,4-tetrahydroisoquinoline-7-yl)-1H-pyrazolo[3,4-d]pyrimidine-3,6-diamine]",720
